Each structure is given as a SMILES string.

The target in test [1] is Human immunodeficiency virus type 1 reverse transcriptase (Human immunodeficiency virus 1, UniProt Q72547). Briefly: Inhibitory activity against recombinant HIV-1 reverse transcriptase (rRT).
Test [2] is described as follows: Anti-HIV activity by its ability to inhibit the replication of HIV-1 strain RT-MDR(V106A) in peripheral blood mononuclear cells (PBMC). The settings on record: Homo sapiens. The test is classed as functional.
Test [3] in a line: Anti-HIV activity by its ability to inhibit the replication of HIV-1 strain A17 variant (Y181C,K103N) in peripheral blood mononuclear cells (PBMC). The format is functional, Homo sapiens.
A short description of test [4]: Anti-HIV activity by its ability to inhibit the replication of HIV-1 strain HTLV IIIB in peripheral blood mononuclear cells (PBMC). The format is functional. As to conditions: Homo sapiens.
Test [5] is described as follows: Compound was evaluated for the cytotoxic activity by using Microculture Tetrazolium assay (MTA). The test is classed as functional.
A short description of test [6]: Anti-HIV activity by its ability to inhibit the replication of HIV-1 strain A17 (Y181C) in peripheral blood mononuclear cells (PBMC). The test is classed as functional. The settings on record: Homo sapiens.

For the compound `CC1(C)C2CC(C/N=C(\S)Nc3ccc(Br)cn3)CC1C2` (stereo not given), in test [1], the IC50 was > 100000 nM.

As to `Cc1ccnc2c1NC(=O)c1cccnc1N2C1CC1` [NEVIRAPINE], the IC50 was 5000 nM in test [2], > 100000 nM in test [3], 34 nM in test [4] and > 100000 nM in test [6]. Moreover, the cytotoxic concentration (CC50) in test [5] is 10500 nM.

On to `FC(F)(F)c1ccc(/N=C(\S)NCCC2=CCCCC2)nc1`, for which the IC50 was 38 nM in test [2]; 4000 nM in test [1]; > 100000 nM in test [3]; 79 nM in test [4]; 300 nM in test [6]. Also, the CC50 in test [5] is > 100000 nM.

`CCOCn1c(Cc2ccccc2)c(C(C)C)c(=O)[nH]c1=O` [EMIVIRINE] returned an IC50 in test [2] of 300 nM. Besides, the CC50 in test [5] was > 100000 nM.

As for `S=C(NCCc1ccccn1)Nc1ccc(Br)cn1` [TROVIRDINE], the half-inhibitory concentration (IC50) in test [2] was 20 nM; in test [3], > 100000 nM; in test [4], 7 nM; in test [6], 500 nM. Further, the CC50 in test [5] is > 100000 nM.

Consider `S=C(NCC12CC3CC(CC(C3)C1)C2)Nc1ccc(Br)cn1`, for which, in test [1], the IC50 was > 100000 nM.

On to `S=C(NCCC1=CCCCC1)Nc1ccc(Cl)cn1`, for which the IC50 in test [2] stood at 1 nM; in test [1], 500 nM; in test [3], 30000 nM; in test [4], 3 nM; in test [6] it was 68 nM. Also, in test [5], the CC50 was > 100000 nM.

With `CC(C)Nc1cccnc1N1CCN(C(=O)c2cc3cc(NS(C)(=O)=O)ccc3[nH]2)CC1` [DELAVIRDINE], the half-maximal inhibitory concentration (IC50) is 400 nM in test [2], > 100000 nM in test [3], 9 nM in test [4] and 50000 nM in test [6]. Moreover, half-maximal cytotoxicity in test [5] (CC50) was put at 3600 nM.

On to `Cc1cn([C@H]2C[C@H](N=[N+]=[N-])[C@@H](CO)O2)c(=O)[nH]c1=O` [ZIDOVUDINE], for which the IC50 in test [2] was found to be 200 nM; in test [3], 4 nM; in test [6] it was 6 nM. The CC50 in test [5] is > 100000 nM.

For `S=C(NCCC1=CCCCC1)Nc1ccc(Br)cn1`, the IC50 in test [2] came to 1 nM; in test [1], 400 nM; in test [3], 18700 nM; in test [4], 3 nM. In test [5], the CC50 was > 100000 nM.

One may read the IC50 as the concentration needed to halve the response being measured. Broadly, the CC50 is the concentration giving 50% cytotoxicity. Read a low CC50 as greater toxicity to the cells.
